Laboratory results reported in patent US6737383B1, “Herbicidal oxadiazolidines” (priority 1999, dated 2004).

What was measured:
bamyardgrass = assay: Test B flood test barnyardgrass; assay type: in vivo, Echinochloa crus-galli
Procedure, shortened: (§1)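 Read-out is a visual response score from 0 (no effect) to 10 (complete control), assigned by comparison with untreated controls. Treatment was applied at the 2-leaf stage, and plants stayed in the greenhouse for twelve to sixteen days before scoring.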

wheat = assay: Test B pre/postemergence wheat; assay type: in vivo, Triticum aestivum; details: for Wheat plant response rating: scale of 0 to 10 where 0 is no effect and 10 is complete control
Procedure, shortened: (§2)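 Response is a visual 0-to-10 score relative to untreated plants, where 0 means no effect and 10 means complete control, taken twelve to sixteen days after application. Treatments went onto soil at planting and onto foliage of 1- to 4-leaf plants, using a surfactant-containing non-phytotoxic solvent.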

smallflower flatsedge = assay: Test B flood test smallflower flatsedge; assay type: in vivo, Cyperus difformis
Procedure, shortened: as §1

soybean = assay: Test B pre/postemergence soybean; assay type: in vivo, Glycine max; details: for Soybean plant response rating: scale of 0 to 10 where 0 is no effect and 10 is complete control
Procedure, shortened: as §2

cocklebur = assay: Test B pre/postemergence cocklebur; assay type: in vivo, Xanthium strumarium; details: for Cocklebur plant response rating: scale of 0 to 10 where 0 is no effect and 10 is complete control
Procedure, shortened: as §2

sugar beet = assay: Test B pre/postemergence sugar beet; assay type: in vivo, Beta vulgaris; details: for Sugarbeets plant response rating: scale of 0 to 10 where 0 is no effect and 10 is complete control
Procedure, shortened: as §2

wild oat = assay: Test B pre/postemergence wild oat; assay type: in vivo, Avena fatua; details: for Wild oats plant response rating: scale of 0 to 10 where 0 is no effect and 10 is complete control
Procedure, shortened: as §2

purple nutsedge = assay: Test B pre/postemergence purple nutsedge; assay type: in vivo, Cyperus rotundus; details: for Nutsedge plant response rating: scale of 0 to 10 where 0 is no effect and 10 is complete control
Procedure, shortened: as §2

blackgrass = assay: Test B pre/postemergence blackgrass; assay type: in vivo, Alopecurus myosuroides
Procedure, shortened: as §2

crabgrass = assay: Test B pre/postemergence crabgrass; assay type: in vivo, Digitaria sanguinalis; details: for Crabgrass plant response rating: scale of 0 to 10 where 0 is no effect and 10 is complete control
Procedure, shortened: as §2

velvetleaf = assay: Test B pre/postemergence velvetleaf; assay type: in vivo, Abutilon theophrasti; details: for Velvetleaf plant response rating: scale of 0 to 10 where 0 is no effect and 10 is complete control
Procedure, shortened: as §2

bedstraw = assay: Test B pre/postemergence bedstraw; assay type: in vivo, Galium aparine; details: Postemergence
Procedure, shortened: as §2

duck salad = assay: Test B flood test duck salad; assay type: in vivo, Heteranthera limosa
Procedure, shortened: as §1

surinam grass = assay: Test B pre/postemergence surinam grass; assay type: in vivo, Brachiaria decumbens
Procedure, shortened: as §2

rice = assay: Test B flood test rice; assay type: in vivo, Oryza sativa
Procedure, shortened: as §1

corn = assay: Test B pre/postemergence corn; assay type: in vivo, Zea mays; details: for Corn plant response rating: scale of 0 to 10 where 0 is no effect and 10 is complete control
Procedure, shortened: as §2

[1] = Postemergence (flood test), Rate 125 g/ha, scale 0 to 10, 0 is no effect, 10 is complete control
[2] = Rate 62 g/ha, Postemergence (flood test species), scale of 0 to 10 where 0 is no effect and 10 is complete control
[3] = Rate 500 g/ha, listed under Postemergence (flood test species), scale 0 to 10, 0 no effect, 10 complete control
[4] = Postemergence, Rate 125 g/ha, scale 0 to 10, 0 is no effect, 10 is complete control
[5] = Preemergence, Rate 62 g/ha, scale 0 to 10 (0 no effect, 10 complete control)
[6] = Rate 500 g/ha, Postemergence, scale 0 to 10, 0 no effect, 10 complete control
[7] = Preemergence, Rate 250 g/ha, scale of 0 to 10 where 0 is no effect and 10 is complete control
[8] = Preemergence, Rate 500 g/ha, scale of 0 to 10 where 0 is no effect and 10 is complete control
[9] = Rate 62 g/ha, Postemergence, scale of 0 to 10 where 0 is no effect and 10 is complete control
[10] = Rate 250 g/ha, Postemergence, scale of 0 to 10 where 0 is no effect and 10 is complete control

Structure (SMILES): CC(C)N(C(=O)n1oc(=O)n(CC2CCCO2)c1=O)c1ccc(F)cc1 (stereo not shown) [Compound 343]
- Plant response rating, Barnyardgrass (bamyardgrass; [1]): 0
- Barnyardgrass plant response rating (bamyardgrass; [2]): 0
- Plant response rating, Barnyardgrass (bamyardgrass; Rate 250 g/ha, Postemergence (flood test species), scale of 0 to 10 where 0 is no effect and 10 is complete control): 0
- Plant response rating, Barnyardgrass (bamyardgrass; [3]): 2
- Plant response rating, Wheat (wheat; [4]): 4
- Plant response rating, Wheat (wheat; [5]): 0
- Wheat plant response rating (0 to 10 scale) (wheat; Preemergence, Rate 125 g/ha): 0
- Wheat plant response rating (wheat; Preemergence, Rate 250 g/ha): 0
- Wheat plant response rating (wheat; Preemergence, Rate 500 g/ha): 5
- Wheat plant response rating (wheat; Rate 62 g/ha, Postemergence): 2
- Plant response rating, Wheat (wheat; [6]): 5
- Plant response rating, S. Flatsedge (smallflower flatsedge; [1]): 0
- S. Flatsedge plant response rating (smallflower flatsedge; [2]): 0
- Plant response rating, S. Flatsedge (smallflower flatsedge; [3]): 0
- Plant response rating, Soybean (soybean; [4]): 1
- Plant response rating, Soybean (soybean; [5]): 0
- Soybean plant response rating (0 to 10 scale) (soybean; Preemergence, Rate 125 g/ha): 0
- Soybean plant response rating (soybean; Preemergence, Rate 250 g/ha): 0
- Soybean plant response rating (soybean; Preemergence, Rate 500 g/ha): 0
- Soybean plant response rating (soybean; Rate 62 g/ha, Postemergence): 1
- Plant response rating, Soybean (soybean; [6]): 3
- Plant response rating, Cocklebur (cocklebur; [4]): 0
- Plant response rating, Cocklebur (cocklebur; [5]): 0
- Cocklebur plant response rating (cocklebur; Preemergence, Rate 250 g/ha): 0
- Cocklebur plant response rating (cocklebur; Preemergence, Rate 500 g/ha): 0
- Cocklebur plant response rating (cocklebur; Rate 62 g/ha, Postemergence): 0
- Plant response rating, Cocklebur (cocklebur; [6]): 4
- Plant response rating, Sugarbeets (sugar beet; [4]): 0
- Plant response rating, Sugarbeets (sugar beet; [5]): 0
- Sugarbeets plant response rating (0 to 10 scale) (sugar beet; Preemergence, Rate 125 g/ha): 0
- Sugarbeets plant response rating (sugar beet; Preemergence, Rate 250 g/ha): 1
- Sugarbeets plant response rating (sugar beet; Preemergence, Rate 500 g/ha): 6
- Sugarbeets plant response rating (sugar beet; Rate 62 g/ha, Postemergence): 0
- Plant response rating, Sugarbeets (sugar beet; [6]): 3
- Plant response rating, Wild oats (wild oat; [4]): 4
- Plant response rating, Wild oats (wild oat; [5]): 2
- Wild oats plant response rating (0 to 10 scale) (wild oat; Preemergence, Rate 125 g/ha): 4
- Wild oats plant response rating (wild oat; Preemergence, Rate 250 g/ha): 9
- Wild oats plant response rating (wild oat; Preemergence, Rate 500 g/ha): 9
- Wild oats plant response rating (wild oat; Rate 62 g/ha, Postemergence): 0
- Plant response rating, Wild oats (wild oat; [6]): 4
- Plant response rating, Nutsedge (purple nutsedge; [4]): 0
- Plant response rating, Nutsedge (purple nutsedge; [5]): 0
- Nutsedge plant response rating (0 to 10 scale) (purple nutsedge; Preemergence, Rate 125 g/ha): 0
- Nutsedge plant response rating (purple nutsedge; Preemergence, Rate 250 g/ha): 0
- Nutsedge plant response rating (purple nutsedge; Preemergence, Rate 500 g/ha): 0
- Nutsedge plant response rating (purple nutsedge; Rate 62 g/ha, Postemergence): 0
- Plant response rating, Nutsedge (purple nutsedge; [6]): 3
- Plant response rating, Blackgrass (blackgrass; [4]): 3
- Plant response rating, Blackgrass (blackgrass; [5]): 7
- Blackgrass plant response rating (0 to 10 scale) (blackgrass; Preemergence, Rate 125 g/ha): 8
- Blackgrass plant response rating (blackgrass; [7]): 9
- Blackgrass plant response rating (blackgrass; [8]): 10
- Blackgrass plant response rating (blackgrass; [9]): 3
- Plant response rating, Blackgrass (blackgrass; [10]): 5
- Plant response rating, Blackgrass (blackgrass; [6]): 6
- Plant response rating, Crabgrass (crabgrass; [4]): 1
- Plant response rating, Crabgrass (crabgrass; [5]): 6
- Crabgrass plant response rating (0 to 10 scale) (crabgrass; Preemergence, Rate 125 g/ha): 9
- Crabgrass plant response rating (crabgrass; Preemergence, Rate 500 g/ha): 10
- Crabgrass plant response rating (crabgrass; Rate 62 g/ha, Postemergence): 1
- Plant response rating, Crabgrass (crabgrass; [6]): 6
- Plant response rating, Velvetleaf (velvetleaf; [4]): 0
- Plant response rating, Velvetleaf (velvetleaf; [5]): 5
- Velvetleaf plant response rating (0 to 10 scale) (velvetleaf; Preemergence, Rate 125 g/ha): 6
- Velvetleaf plant response rating (velvetleaf; Preemergence, Rate 250 g/ha): 7
- Velvetleaf plant response rating (velvetleaf; Preemergence, Rate 500 g/ha): 7
- Velvetleaf plant response rating (velvetleaf; Rate 62 g/ha, Postemergence): 0
- Plant response rating, Velvetleaf (velvetleaf; [6]): 5
- Plant response rating, Bedstraw (bedstraw; Rate 125 g/ha, scale 0 to 10, 0 is no effect, 10 is complete control): 0
- Bedstraw plant response rating (bedstraw; Rate 62 g/ha, scale of 0 to 10 where 0 is no effect and 10 is complete control): 0
- Plant response rating, Bedstraw (bedstraw; Rate 250 g/ha, scale of 0 to 10 where 0 is no effect and 10 is complete control): 0
- Plant response rating, Bedstraw (bedstraw; Rate 500 g/ha, scale 0 to 10, 0 no effect, 10 complete control): 3
- Plant response rating, Ducksalad (duck salad; [1]): 0
- Ducksalad plant response rating (duck salad; [2]): 0
- Plant response rating, Ducksalad (duck salad; [3]): 0
- Plant response rating, B. signalgrass (surinam grass; [4]): 4
- Plant response rating, B. signalgrass (surinam grass; [5]): 3
- B. signalgrass plant response rating (0 to 10 scale, 0 is no effect, 10 is complete control) (surinam grass; Preemergence, Rate 125 g/ha): 4
- B. signalgrass plant response rating (surinam grass; [7]): 6
- B. signalgrass plant response rating (surinam grass; [8]): 8
- B. signalgrass plant response rating (surinam grass; [9]): 2
- Plant response rating, B. signalgrass (surinam grass; [10]): 4
- Plant response rating, B. signalgrass (surinam grass; [6]): 7
- Plant response rating, Rice (rice; [1]): 0
- Rice plant response rating (rice; [2]): 0
- Plant response rating, Rice (rice; [3]): 0
- Plant response rating, Corn (corn; [4]): 0
- Plant response rating, Corn (corn; [5]): 0
- Corn plant response rating (0 to 10 scale) (corn; Preemergence, Rate 125 g/ha): 0
- Corn plant response rating (corn; Preemergence, Rate 250 g/ha): 0
- Corn plant response rating (corn; Preemergence, Rate 500 g/ha): 4
- Corn plant response rating (corn; Rate 62 g/ha, Postemergence): 0
- Plant response rating, Corn (corn; [6]): 2
